Assay results reported in patent US8828971B2, “Galactose-pronged carbohydrate compounds for the treatment of diabetic nephropathy and associated disorders” (Galectin Therapeutics, Inc., priority 2012, dated 2014).

Experiments:
[1] = tested on: mouse model of diabetic nephropathy; assay: Sirius red stained kidney sections with digital morphometry, mouse model of diabetic nephropathy; type: in vivo; settings: diabetic mice, IV 40 mg/kg three times weekly for four weeks; for Sirius red staining (interstitial collagen between renal tubules), histological appearance: FIG. 2, 40 mg/kg
Description: Shown are low (×50) and high magnification (×200) pictures of the three experimental groups: 1) Normal mouse; 2) Diabetic mice treated with vehicle (phosphate buffered saline, treatment control); and 3) Diabetic mice treated with GR-MD-02/001 B (IV 40 mg/kg). The arrows point to a stained strand that indicates the presence of collagen type.
Statistical comparisons of the percent Sirius red staining shown for the three experimental groups: 1) Normal mouse; 2) Diabetic mice treated with vehicle (phosphate buffered saline, treatment control); and 3) Diabetic mice treated with GR-MD-02/001 B (IV 40 mg/kg).
(§1) The experimental model used in this example is the mouse in which diabetes was induced and a high fat diet was administered. Diabetes was induced immediately following birth with a single injection of streptozotocin. Four weeks later the mice were started on a high fat diet.
(§2) Diabetic mice were treated either with vehicle (phosphate buffered saline) or GR-MD-02/001B given intravenously in a dose of 40 mg/kg three times weekly for four weeks total. There were eight (8) mice in each group. Two normal mice were also utilized as a comparison group.
Sirius red reagent is used as a stain to evaluate the increase in extracellular matrix material in the interstitium between tubular cells. Minimal red staining is seen in the normal animals. However, there is an increase in staining seen in the vehicle treated control animals.
Thirty two (32) separate slides from each group were blindly evaluated by quantitative digital morphometry for the percent staining with Sirius red.

[2] = tested on: mouse model of diabetic nephropathy; assay: PAS stained kidney sections, mouse model of diabetic nephropathy; type: in vivo; settings: diabetic mice, IV 40 mg/kg three times weekly for four weeks
Description: Shown are low (×200) and high magnification (×400) pictures of the three experimental groups: 1) Normal mouse; 2) Diabetic mice treated with vehicle (phosphate buffered saline, treatment control); and 3) Diabetic mice treated with GR-MD-02/001 B (IV 40 mg/kg). The arrows point to a glomerulus.
as §1, §2
The diabetic mice had clear histological evidence of diabetic nephropathy as shown in pictures of PAS stained kidney sections in FIG. 1. […] In the vehicle treated control animals there is a clear increase in mesangial basement membrane material (the pink extracellular matrix) over the normal animals.

“galactoarabino-rhamnogalacturonate [GR-MD-02/001B]” was tested, and the “Percent Sirius red staining by quantitative digital morphometry compared to vehicle treated controls” value ([1]; 32 slides per group, levels nearly the same as normal mice, FIG. 3) was “statistically significant decrease”, the “Sirius red staining (interstitial collagen between renal tubules), histological appearance” value [1] was “marked reduction” and the “Sirius red staining (interstitial collagen between renal tubules), histological appearance” value ([1]; listed as GR-MD02/001B) was “reduced the deposition of matrix”. The “Mesangial extracellular matrix material (PAS stain, glomerulus) compared to vehicle treated control animals” value ([2]; FIG. 1) was “marked decrease” and the “Mesangial extracellular matrix material (PAS stain, glomerulus) compared to vehicle treated control animals” value ([2]; FIG. 1, listed as GR-MD02/001B) was “reduced the mesangial expansion of extracellular matrix”.
